Patent publication US12180307B2, “Interleukin-13 binding cyclic oligopeptides and methods of use thereof” (B.A.I. LABORATORIES, LLC, priority 2022, dated 2024)
Values joined by “and” are separate entries in the source; they are usually repeats but may differ in a detail not shown here. Identical values can stand only once. Square brackets hold non-standard residues; d marks the D form. Peptide text beside a SMILES is read from it.

Tests used:
Human IL-13 = Human IL-13 (Homo sapiens, UniProt P35225); assay: Surface plasmon resonance (SPR) binding assay, BIAcore 8K plus, immobilized Fc-tagged IL-13; conditions: 25° C., human IL-13 with Fc-tag immobilized on CM5 chip, read-out: Binding Affinity (KD) for IL-13
Human IL-13, sequence (P35225 25-146): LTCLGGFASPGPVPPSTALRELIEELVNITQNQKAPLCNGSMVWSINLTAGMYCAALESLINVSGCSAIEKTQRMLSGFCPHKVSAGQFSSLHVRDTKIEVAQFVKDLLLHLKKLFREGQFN
Method: A SPR assay was conducted to determine the binding affinity of the cyclic oligopeptides generated in Example 1 for IL-13 using a BIAcore 8K plus instrument (GE Healthcare). Human IL-13 with an Fc-tag was immobilized onto the surfaces of Series S Sensor CM5 (GE Healthcare) chips in the range of 5000 resonance units (RU). The binding kinetics were performed at 25° C. with a flow rate of 30 μL/min. The cyclic oligopeptides were analyzed in running buffer comprising 20 mM PBS, 2.7 mM KCl, […], 0.0500 Surfactant P20, pH 7.4, 1% DMSO, starting at 100 μM with gradient of ten two-fold dilutions using solvent correction mode.
FIGS. 2C, 3C, 4C, 5C, 6C, 7C, 8C, 9C, 10C, 11C, and 12C provide SPR response curves for the cyclic oligopeptides generated in Example 1, wherein the x-axis represents time of reaction and y-axis represents altitude of response (Response Units).

FIG. 8D = assay: FIG. 8D
Method: Table printed on a drawing sheet, FIG. 8D
The patent's description of the figure: FIG. 8A provides the MS spectrum for Compound 7. FIG. 8B provides the HPLC chromatogram for Compound 7. FIG. 8C provides SPR assay curves showing the binding affinity of Compound 7 for IL-13, the x-axis represents time of reaction and y-axis represents altitude of response (Response Units). FIG. 8D illustrates skin permeation rate of Compound 7 for up to 24 hours. FIG. 8E illustrates average permeability coefficient (Kp) of Compound 7 for 1, 2, 4, 8, 12 and 24 hours.
First reader's note: The substance name Compound 7 comes from the legend of the plot printed above the table; the values are skin permeation over time in three replicates with their average and range.

[1] = Skin permeability, Franz Cell diffusion cell with artificial skin, Transdermal Diffusion Tester, BCA assay; assay type: in vitro ADME; conditions: for Average Permeation Rate After 24 Hours (%) / Average Permeation Rate After 1 Hour (%): 32° C., 1.0 mg/mL in PBS; for Papp at 1 h, 1 mg/mL / Average Permeation Rate After 1 Hour (%): after 1 hour; for Papp at 1 h, 1 mg/mL: read-out: Average Permeability Coefficient (Kp) After 1 hour (converted)
Method: As used herein, the term “skin permeation rate” of a cyclic oligopeptide is measured using artificial skin (Start M, Merck), and refers to the percentage of the cyclic oligopeptide that penetrate the artificial skin after certain amount of time. For example, if 60% of the total amount of a cyclic oligopeptide of this disclosure has penetrated the artificial skin after 24 hours, then the skin permeation rate of the cyclic oligopeptide is 60% after 24 hours.
As used herein, the term “skin permeability coefficient (Kp)” refers to the rate at which the cyclic oligopeptide penetrates the skin, as measured using artificial skin (Start M, Merck). In some embodiments, permeability coefficient (Kp)(cm/hr) is calculated with the following equation:
[formula] wherein Q(mg) refers to the total amount of cyclic oligopeptide that pass through the artificial skin within a certain amount of time; A(cm^2) refers to the internal cross-section area of the artificial skin in a diffusion cell; T(hr) refers to the total amount of time of cyclic oligopeptide permeation; and ΔC(mg/mL) refers to the concentration difference of the cyclic oligopeptide between the two sides of the artificial skin. In some embodiments, the diffusion cell is a Franz Cell.
Skin permeability of the cyclic oligopeptides generated in Example 1 was measured using Transdermal Diffusion Tester (TK-12D, Shanghai Kai Kai Industrial Co Ltd) and artificial skin (Start M, Merck). Three parallel experimental groups were set up for each sample. The skin permeability of cyclic oligopeptides was evaluated by the following steps: • 1) 2.0 mg cyclic oligopeptide was weighed and dissolved in 100 μL DMSO. Three parallel experimental groups were set up for each cyclic oligopeptide. The cyclic oligopeptide-containing solution was then slowly added dropwise to 1900 μL 1×PBS solution and mixed evenly to prepare a PBS solution with a final concentration of 1.0 mg/mL cyclic polypeptide. • 2) A magnetron was inserted into a Franz Cell diffusion cell, and an artificial skin was sandwiched in the middle of the diffusion cell with the smooth side of the artificial skin facing up. The diffusion cell was then fixed with clamps after assembly. • 3) 7.75 ml 1×PBS solution were then added to the diffusion cell without generating bubbles in the diffusion cell. The sampling port of the diffusion cell was then sealed with parafilm to reduce evaporation. • 4) The temperature of a Transdermal Diffusion Tester was then set to 32° C., and the magneton speed was set to 180 r/min. • 5) The assembled diffusion cell was then put into the Transdermal Diffusion Tester and preheated for 5-10 mins. • 6) 400 μL of 1.0 mg/mL cyclic oligopeptide solution prepared in step 1) was then added to the upper chamber of the diffusion cell, making it evenly dispersed on the surface of the artificial skin without air bubbles. The top port of the diffusion cell was then covered with parafilm to reduce evaporation. • 7) Starting from the time of adding the cyclic oligopeptide solution, samples of about 0.5 mL of the receiving solution were taken at six time points, 1 h, 2 h, 4 h, 8 h, 12 h and 24 h, using a plastic dropper to take out the samples from the sampling port of the diffusion cell. 0.5 mL of 1×PBS solution was added into the diffusion cell to restore the initial volume of the receiving solution. When sampling, the diffusion cell was tilted appropriately to avoid the generation of bubbles. The samples were then numbered and store at −20° C. • 8) A BCA Assay (Micro BCA Protein Assay Kit, Thermo Scientific) was conducted to measure the concentration of cyclic oligopeptide in samples obtained in step 7) (Actual Concentration of the cyclic oligopeptide at the particular time point). Three parallel groups were used. The weight of cyclic oligopeptide in each sample obtained in step 7) equals to Actual Concentration×0.5 mL. • 9) Permeation rate of each cyclic oligopeptide at each time point was calculated according to the following equation: […]

FIG. 9D = assay: FIG. 9D
Method: Table printed on a drawing sheet, FIG. 9D
The patent's description of the figure: FIG. 9A provides the MS spectrum for Compound 8. FIG. 9B provides the HPLC chromatogram for Compound 8. FIG. 9C provides SPR assay curves showing the binding affinity of Compound 8 for IL-13, the x-axis represents time of reaction and y-axis represents altitude of response (Response Units). FIG. 9D illustrates skin permeation rate of Compound 8 for up to 24 hours. FIG. 9E illustrates average permeability coefficient (Kp) of Compound 8 for 1, 2, 4, 8, 12 and 24 hours.
First reader's note: The substance name is taken from the legend of the plot printed above the table in the same figure; the values are three replicate permeation rates, their average and their range.

FIG. 10D = assay: FIG. 10D
Method: Table printed on a drawing sheet, FIG. 10D
The patent's description of the figure: FIG. 10A provides the MS spectrum for Compound 9. FIG. 10B provides the HPLC chromatogram for Compound 9. FIG. 10C provides SPR assay curves showing the binding affinity of Compound 9 for IL-13, the x-axis represents time of reaction and y-axis represents altitude of response (Response Units). FIG. 10D illustrates skin permeation rate of Compound 9 for up to 24 hours. FIG. 10E illustrates average permeability coefficient (Kp) of Compound 9 for 1, 2, 4, 8, 12 and 24 hours.
First reader's note: The substance name is taken from the legend of the plot printed above the table; three replicate permeation values, their average and their range per time point.

FIG. 11D = assay: FIG. 11D
Method: Table printed on a drawing sheet, FIG. 11D
The patent's description of the figure: FIG. 11A provides the MS spectrum for Compound 10. FIG. 11B provides the HPLC chromatogram for Compound 10. FIG. 11C provides SPR assay curves showing the binding affinity of Compound 10 for IL-13, the x-axis represents time of reaction and y-axis represents altitude of response (Response Units). FIG. 11D illustrates skin permeation rate of Compound 10 for up to 24 hours. FIG. 11E illustrates average permeability coefficient (Kp) of Compound 10 for 1, 2, 4, 8, 12 and 24 hours.
First reader's note: The substance name comes from the legend of the plot above the table; columns 2-4 are three replicate permeation measurements, followed by their average and range.

FIG. 12D = assay: FIG. 12D
Method: Table printed on a drawing sheet, FIG. 12D
The patent's description of the figure: FIG. 12A provides the MS spectrum for Compound 11. FIG. 12B provides the HPLC chromatogram for Compound 11. FIG. 12C provides SPR assay curves showing the binding affinity of Compound 11 for IL-13, the x-axis represents time of reaction and y-axis represents altitude of response (Response Units). FIG. 12D illustrates skin permeation rate of Compound 11 for up to 24 hours. FIG. 12E illustrates average permeability coefficient (Kp) of Compound 11 for 1, 2, 4, 8, 12 and 24 hours.
First reader's note: The substance name is taken from the legend of the plot printed above the table on the same sheet; the last column is the range (max minus min) of the three replicates.

Row | SMILES | Kd (Human IL-13) | Permeation Avg. (%) (FIG. 8D) | Average Permeation Rate After 24 Hours (%) ([1]; after 24 hours) | Papp at 1 h, 1 mg/mL [1] | Permeation Avg. (%) (FIG. 9D) | Average Permeation Rate After 1 Hour (%) [1] | Papp at 24 h, 1 mg/mL ([1]; after 24 hours, read-out: Average Permeability Coefficient (Kp) After 24 hours) | Permeation Avg. (%) (FIG. 10D) | Permeation Avg. (%) (FIG. 11D) | Permeation Avg. (%) (FIG. 12D)
1 | CC(C)C[C@H]1NC(=O)[C@@H]2CCCN2C(=O)[C@@H](Cc2ccccc2)NC(=O)[C@H](CCCNC(=N)N)NC(=O)[C@H]([C@@H](C)O)NC(=O)[C@H]2CCCN2C1=O [Compound 7, Thr Arg D-Phe Pro D-Leu D-Pro] (cyclo(P[dL][dP]TR[dF])) | 85.1 µM | 28.31% and 31.36% and 33.66% and 36.74% | 38.84% | 15.2 ×10⁻⁶ cm/s |  |  |  |  |  | 
2 | CSCC[C@@H]1NC(=O)[C@H](Cc2c[nH]c3ccccc23)NC(=O)[C@@H]2CCCN2C(=O)[C@H](CCC(=O)O)NC(=O)[C@H](CCCNC(=N)N)NC(=O)[C@@H](CC(C)C)NC(=O)[C@@H]2CCCN2C1=O [Compound 8, D-Leu Arg Glu Pro Trp Met Pro] (cyclo(EPWMP[dL]R)) |  |  | 35.20% | 7.39 ×10⁻⁶ cm/s | 17.57% and 23.24% and 27.76% and 32.33% | 12.44% | > 0.0278 ×10⁻⁶ cm/s |  |  | 
3 | CC(C)C[C@@H]1NC(=O)[C@@H](CCCNC(=N)N)NC(=O)[C@@H]2CCCN2C(=O)[C@H](CCC(=O)O)NC(=O)[C@@H]([C@H](C)O)NC(=O)[C@H](Cc2c[nH]c3ccccc23)NC(=O)[C@@H](Cc2c[nH]c3ccccc23)NC1=O [Compound 9, D-Arg Leu D-Trp Trp D-Thr Glu Pro] (cyclo(EP[dR]L[dW]W[dT])) | 337 µM |  |  | 14 ×10⁻⁶ cm/s |  |  |  | 31.10% and 41.93% and 48.23% and 55.09% |  | 
4 | N=C(N)NCCC[C@@H]1NC(=O)[C@H]2CCCN2C(=O)[C@@H](Cc2c[nH]c3ccccc23)NC(=O)[C@H]2CCCN2C(=O)[C@H](CS)NC(=O)[C@H](Cc2ccc(O)cc2)NC(=O)[C@H](CC(=O)O)NC1=O [Compound 10, Arg Asp Tyr Cys D-Pro D-Trp D-Pro] (cyclo(C[dP][dW][dP]RDY)) | 368 µM |  |  | 11.7 ×10⁻⁶ cm/s |  | 18.96% |  |  | 29.18% and 39.99% and 47.96% and 56.44% | 
5 | CC(C)C[C@@H]1NC(=O)[C@@H](C(C)C)NC(=O)[C@@H](Cc2c[nH]c3ccccc23)NC(=O)[C@@H](CC(C)C)NC(=O)[C@@H]2CCCN2C(=O)[C@H](C(C)C)NC(=O)[C@@H]2CCCN2C(=O)[C@H](CCCNC(=N)N)NC1=O [Compound 11, Val Pro D-Leu D-Trp D-Val Leu Arg Pro] (cyclo(LRPVP[dL][dW][dV])) | 622 µM |  |  | 7.22 ×10⁻⁶ cm/s |  | 11.77% |  |  |  | 15.61% and 19.18% and 21.74% and 23.90%
